Results as given in ChEMBL document CHEMBL1133901, “Synthesis and potassium channel opening activity of substituted 10H-benzo[4,5]furo[3,2-b]indole-and 5,10-dihydro-indeno[1,2-b]indole-1-carboxylic acids” (Bioorg Med Chem Lett, 2001).

Species on record: Rattus norvegicus
Assay: Concentration that relaxed KCl-induced contractions in rat aortic rings by 50%
Assay type: functional
Conditions: Aorta

IC50 [µM] | SMILES
109 | O=C(O)c1cccc2c1Cc1c-2[nH]c2ccc(Br)cc12
118 | O=C(O)c1cccc2c1[nH]c1c3cc(Br)ccc3oc21
210 | O=C(O)c1cccc2c3c([nH]c12)-c1cc(Br)ccc1C3
17.2 | CC1(C)c2ccc([N+](=O)[O-])cc2-c2[nH]c3c(C(=O)O)cccc3c21

Species on record: Rattus norvegicus
Assay: Concentration that relaxed KCl-induced contractions in rat detrusor strips by 50%
Assay type: functional
Conditions: not given

IC50 [µM] | SMILES
> 30 | COC(=O)c1cccc2c1[nH]c1c3cc(Br)ccc3oc21
15.1 | O=C(O)c1cccc2c1[nH]c1c3cc(Br)ccc3oc21
5.8 | O=C(O)c1cccc2c1[nH]c1c3cc(Cl)ccc3oc21
> 30 | NC(=O)c1cccc2c1[nH]c1c3cc(Br)ccc3oc21
> 30 | O=Cc1cccc2c1[nH]c1c3cc(Br)ccc3oc21
6.1 | O=C(O)c1cccc2c1[nH]c1c3cc(I)ccc3oc21

The remaining lines, values behind:

SMILES | IC50 [µM]
O=C(O)c1cccc2c1Cc1c-2[nH]c2ccc(OC(F)(F)F)cc12 | 15.4
NS(=O)(=O)c1ccc2[nH]c3c(c2c1)Cc1c(C(=O)O)cccc1-3 | > 30
O=C(O)c1cccc2c1Cc1c-2[nH]c2ccc(Br)cc12 | 4.4
O=C(O)c1cccc2c1Cc1c-2[nH]c2ccc(Cl)cc12 | 22.6
Cn1c2c(C(=O)O)cccc2c2oc3ccc(Br)cc3c21 | > 30
O=C(O)c1cccc2c1[nH]c1c3cc([N+](=O)[O-])ccc3oc21 | 6.3
O=C(O)c1cccc2c1[nH]c1c3ccccc3oc21 | 30
O=C(O)c1cccc2c1Cc1c-2[nH]c2ccc(I)cc12 | 10.1
CC1(C)c2ccc([N+](=O)[O-])cc2-c2[nH]c3c(C(=O)O)cccc3c21 | 5.2
